# According to patent publication US9572862B2, “Methods for promoting lipolysis and oxidation in liver and adipose tissue using catestatin” (The Regents of the University of California, priority 2012, dated 2017):
# Entries after “also recorded” stand apart in the source; their conditions may differ. No end group written: not given here.
# Experiments:
# [1] = test system: Chga-KO mice; assay: Chronic CST administration to Chga-KO mice: adiposity, plasma lipids, leptin; type: in vivo
# Experimental: (§1) FIG. 1. Plasma parameters of wild-type (WT) and Chga-KO mice treated with saline or CST. (A) Plasma CST from saline or CST (5 μg/g BW, i.p./day) treated WT mice (28 week old) on normal chow (NCD) and high fat diet (60% fat for 16 weeks) as well as from Chga-KO mice (28 week old) on NCD. Body weights (B) and epididymal fat pad size normalized to body weight (C) in 28 week old WT and Chga-KO mice treated with saline or CST for 12 days. Plasma triglyceride (TG) (D), glycerol (E), non-esterified fatty acids (NEFA) (F), and leptin (G) in 28 week old WT and Chga-KO mice after treatment with saline or CST for 12 days. (H) Leptin in adipocyte culture media after treatment with saline or CST.
# FIG. 2. Comparison of epididyaml fat pads between saline or CST-treated Chga-KO mice. Adipose tissue was compared after 12 days of treatment with saline (A) or CST (5 μg/g BW, i.p./day) (B). *indicates epididymal fat pad.
# (§2) Adult male (7 month old) WT (31.8±1.2 g) and Chga-KO (39.2±1.5 g) mice in the mixed genetic background (129SvJ×C57BL/6) were studied. Both genotypes were generated from the original founder carrying mixed genotype (50% 129SvJ, 50% C57BL/6) and were maintained by sibling mating. Animals were kept in a 12 hr dark/light cycle and fed standard chow ad libitum. Male C57BL/6 mice, 8 week old, were fed 60% high fat diet (D12492: Research Diets, Inc., New Brunswick) for 16 weeks before using for experiments. Male leptin-deficient (C57BL/6J-Ob/Ob) mice from the Jackson Laboratory were maintained on a standard chow diet. The Institutional Animal Care and Utilization Committee approved all procedures. Chga-KO, DIO and Ob/Ob mice were treated daily with saline or CST (5 μg/g BW, i.p.; 12 days for Chga-KO mice and 16 days for DIO and Ob/Ob mice).
# (§3) Mice were fasted for 12 hr prior to blood draw. Triglycerides (TG) and non-esterified fatty acids (NEFA) were assayed using kits from Wako Diagnostics (Richmond, Va.). Glycerol was assayed using a kit from Sigma (St Louis, Mo.). Media from the explant cultures and mouse serum were analysed for glycerol and NEFA as a measure of lipolysis. ELISA kits were used to determine plasma levels of leptin, adiponectin (Millipore, Billerica, Mass.) and CST (Bachem, Torrance, Calif.). For CST assay, plasma samples and reference standards were passed through mini C18 columns and the flow-through fractions were assayed. The same kits were used for measurements in culture media.
# [2] = test system: 3T3-L1 adipocytes; assay: Leptin in adipocyte culture media after CST; type: cell-based; details: cultured 3T3-L1 adipocytes
# Experimental: as §1
# Mice were fasted for 12 hr prior to blood draw. Triglycerides (TG) and non-esterified fatty acids (NEFA) were assayed using kits from Wako Diagnostics (Richmond, Va.). Glycerol was assayed using a kit from Sigma (St Louis, Mo.). Media from the explant cultures and mouse serum were analysed for glycerol and NEFA as a measure of lipolysis. […]
# Oxidation of radiolabeled palmitate in the homogenates of adipose tissue explants as described previously (45). […] Fatty acid oxidation in cells was determined by modifying a published method (46). […] The filter discs were counted to determine the amount of ^14CO2 absorbed in the papers. […]
# [3] = test system: DIO mice; assay: CST administration to DIO mice for 16 days; type: in vivo
# Experimental: FIG. 7. Effects of CST administration to DIO and Ob/Ob mice on food intake, body weight, adipose tissue weight, and lipolysis. CST (5 μg/g BW, i.p./day) or saline was administered to DIO and Ob/Ob mice for 16 days. Food intake for DIO mice (A) and Ob/Ob mice (B) was measured every other day. Percent changes in final body weight and WAT mass (as % of body weight) were determined for DIO (C) and Ob/Ob (D) mice. Plasma glycerol (E) and NEFA (F) were quantified for DIO and Ob/Ob mice at the end of CST treatment.
# as §2, §3
# [4] = test system: HFD-fed Chga-KO mice; assay: Peptide supplementation to HFD-fed Chga-KO mice (insulin sensitivity); type: in vivo; details: HFD (60%)-fed Chga-KO mice
# [5] = Insulin secretion in culture; type: cell-based
# [6] = test system: db/db mice; assay: CST treatment of diabetic db/db mice; type: in vivo
# From the text: FIG. 15. […] Figures in parentheses indicate number of animals.
# [7] = test system: CST-KO mice; assay: ITT in insulin resistant CST-KO mice with CST, RI-CST or NSC-177941; type: in vivo; details: ITT in CST-KO mice
# From the text: FIG. 16. […] Figures in parentheses indicate number of animals.
# [8] = CST 5 μg/g BW i.p./day for 12 days
sequence,measurement,setting,value
SSMKLSFRARAYGFRGPGPQL [CST],food intake,[1],did not increase food intake
same,body weight,[1]; [8],without affecting body weight
same,epididymal fat pad size,[1]; [8],reduced epididymal fat pad size to WT level
same,plasma NEFA level,[1]; CST 12 days,increased
same,plasma TG levels,[1]; CST 12 days,decreased plasma TG levels
same,plasma glycerol level,[1]; CST 12 days,increased
same,plasma leptin,[1]; CST 12 days,lowered plasma leptin to a level below WT
same,leptin production / release,[2],inhibited leptin production; also recorded: inhibited leptin release
same,food intake,[3]; CST 5 μg/g BW i.p./day 16 days,did not change
same,decrease in adipose tissue mass,[3]; CST 16 days,about 2 g
same,plasma concentration of NEFA (lipolysis),[3]; CST 16 days,increased
same,plasma concentration of glycerol (lipolysis),[3]; CST 16 days,increased
same,insulin sensitivity (GTT),[4],made HFD-fed Chga-KO mice sensitive to insulin
same,insulin secretion in culture,[5],Stimulated Insulin Secretion in Culture in a Glucose-Independent Manner
same,glucose tolerance (GTT),[6]; CST 10 μg/g/day for 14 days,improvement in glucose tolerance; also recorded: improved glucose tolerance
same,C-peptide level,[6]; CST 14 days,without lowering C-peptide levels; also recorded: No change in C-Peptide level
same,C-peptide/Insulin molar ratio,[6]; CST 14 days,increased; also recorded: higher C-Peptide/insulin molar ratio
same,plasma insulin level,[6]; CST 14 days (untreated db/db 20-30 nM),14 to 18 nM
same,persistence of the insulin-sensitizing effect,[7],persisted throughout the experimental period
